How the values were obtained:
Test in all cases: relative viability (nuclei count vs DMSO), 5 days (fraction); higher = more cells survive
[1] = test system: 201T
Procedure, shortened: (§1)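 Relative viability equals treated-well nuclei counts divided by vehicle-well nuclei counts. Counts came from 4× images of lung cancer cell lines grown in 1536-well plates for 5 days after pin-tool dosing on the day after seeding. Dosing used one drug alone or a fixed anchor-drug dose plus five library-drug doses (not always all listed) in √10 steps, and values are medians of duplicate plates.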

[2] = test system: A-427
Procedure, shortened: as §1

[3] = test system: BEN
Procedure, shortened: as §1

[4] = test system: COR-L 105
Procedure, shortened: as §1

[5] = test system: COR-L23
Procedure, shortened: as §1

[6] = test system: EKVX
Procedure, shortened: as §1

[7] = test system: HARA
Procedure, shortened: as §1

[8] = test system: HCC-15
Procedure, shortened: as §1

[9] = test system: HCC-44
Procedure, shortened: as §1

[10] = test system: HCC-827
Procedure, shortened: as §1

[11] = test system: LK-2
Procedure, shortened: as §1

[12] = test system: NCI-H1437
Procedure, shortened: as §1

[13] = test system: NCI-H1666
Procedure, shortened: as §1

[14] = test system: NCI-H1792
Procedure, shortened: as §1

[15] = test system: NCI-H1975
Procedure, shortened: as §1

[16] = test system: NCI-H23
Procedure, shortened: as §1

[17] = test system: NCI-H358
Procedure, shortened: as §1

[18] = test system: NCI-H441
Procedure, shortened: as §1

[19] = test system: NCI-H650
Procedure, shortened: as §1

[20] = test system: NCI-H838
Procedure, shortened: as §1

[21] = test system: SK-MES-1
Procedure, shortened: as §1

[22] = test system: SW 900
Procedure, shortened: as §1

## O=C(O)c1ccc(-c2c[nH]c3ncc(-c4ccccc4)cc23)cc1C1CCCC1 + CC(=O)c1c(C)c2cnc(Nc3ccc(N4CCNCC4)cn3)nc2n(C2CCCC2)c1=O [Palbociclib] (partner 0.5 µM)
[1]; first compound 0.04 µM
  relative viability: 0.353
[1]; first compound 0.1265 µM
  relative viability: 0.364
[1]; first compound 0.4 µM
  relative viability: 0.341
[1]; first compound 1.265 µM
  relative viability: 0.364
[2]; first compound 0.04 µM
  relative viability: 0.536
[2]; first compound 0.1265 µM
  relative viability: 0.526
[2]; first compound 0.4 µM
  relative viability: 0.485
[2]; first compound 1.265 µM
  relative viability: 0.48
[3]; first compound 0.04 µM
  relative viability: 0.459
[3]; first compound 0.1265 µM
  relative viability: 0.422
[3]; first compound 0.4 µM
  relative viability: 0.455
[3]; first compound 1.265 µM
  relative viability: 0.454
[4]; first compound 0.04 µM
  relative viability: 0.422
[4]; first compound 0.1265 µM
  relative viability: 0.392
[4]; first compound 0.4 µM
  relative viability: 0.349
[4]; first compound 1.265 µM
  relative viability: 0.411
[5]; first compound 0.04 µM
  relative viability: 0.296
[5]; first compound 0.1265 µM
  relative viability: 0.326
[5]; first compound 0.4 µM
  relative viability: 0.308
[5]; first compound 1.265 µM
  relative viability: 0.205
[6]; first compound 0.04 µM
  relative viability: 0.444
[6]; first compound 0.1265 µM
  relative viability: 0.379
[6]; first compound 0.4 µM
  relative viability: 0.233
[6]; first compound 1.265 µM
  relative viability: 0.362
[7]; first compound 0.04 µM
  relative viability: 0.308
[7]; first compound 0.1265 µM
  relative viability: 0.267
[7]; first compound 0.4 µM
  relative viability: 0.248
[7]; first compound 1.265 µM
  relative viability: 0.216
[8]; first compound 0.04 µM
  relative viability: 0.793
[8]; first compound 0.1265 µM
  relative viability: 0.762
[8]; first compound 0.4 µM
  relative viability: 0.631
[8]; first compound 1.265 µM
  relative viability: 0.431
[9]; first compound 0.04 µM
  relative viability: 0.967
[9]; first compound 0.1265 µM
  relative viability: 0.938
[9]; first compound 0.4 µM
  relative viability: 0.875
[9]; first compound 1.265 µM
  relative viability: 0.805
[10]; first compound 0.04 µM
  relative viability: 0.354
[10]; first compound 0.1265 µM
  relative viability: 0.474
[10]; first compound 0.4 µM
  relative viability: 0.434
[10]; first compound 1.265 µM
  relative viability: 0.328
[11]; first compound 0.04 µM
  relative viability: 0.826
[11]; first compound 0.1265 µM
  relative viability: 0.768
[11]; first compound 0.4 µM
  relative viability: 0.771
[11]; first compound 1.265 µM
  relative viability: 0.646
[12]; first compound 0.04 µM
  relative viability: 0.326
[12]; first compound 0.1265 µM
  relative viability: 0.319
[12]; first compound 0.4 µM
  relative viability: 0.311
[12]; first compound 1.265 µM
  relative viability: 0.193
[13]; first compound 0.04 µM
  relative viability: 0.604
[13]; first compound 0.1265 µM
  relative viability: 0.622
[13]; first compound 0.4 µM
  relative viability: 0.609
[13]; first compound 1.265 µM
  relative viability: 0.547
[14]; first compound 0.1265 µM
  relative viability: 0.681
[14]; first compound 0.4 µM
  relative viability: 0.657
[14]; first compound 1.265 µM
  relative viability: 0.691
[15]; first compound 0.04 µM
  relative viability: 0.588
[15]; first compound 0.1265 µM
  relative viability: 0.55
[15]; first compound 0.4 µM
  relative viability: 0.585
[15]; first compound 1.265 µM
  relative viability: 0.475
[16]; first compound 0.04 µM
  relative viability: 0.577
[16]; first compound 0.1265 µM
  relative viability: 0.491
[16]; first compound 0.4 µM
  relative viability: 0.483
[16]; first compound 1.265 µM
  relative viability: 0.308
[17]; first compound 0.04 µM
  relative viability: 0.128
[17]; first compound 0.1265 µM
  relative viability: 0.12
[17]; first compound 0.4 µM
  relative viability: 0.124
[17]; first compound 1.265 µM
  relative viability: 0.0876
[18]; first compound 0.04 µM
  relative viability: 0.248
[18]; first compound 0.1265 µM
  relative viability: 0.232
[18]; first compound 0.4 µM
  relative viability: 0.223
[18]; first compound 1.265 µM
  relative viability: 0.22
[19]; first compound 0.04 µM
  relative viability: 0.32
[19]; first compound 0.1265 µM
  relative viability: 0.344
[19]; first compound 0.4 µM
  relative viability: 0.312
[19]; first compound 1.265 µM
  relative viability: 0.279
[20]; first compound 0.04 µM
  relative viability: 0.189
[20]; first compound 0.1265 µM
  relative viability: 0.267
[20]; first compound 0.4 µM
  relative viability: 0.214
[20]; first compound 1.265 µM
  relative viability: 0.215
[21]; first compound 0.04 µM
  relative viability: 0.335
[21]; first compound 0.1265 µM
  relative viability: 0.288
[21]; first compound 0.4 µM
  relative viability: 0.303
[21]; first compound 1.265 µM
  relative viability: 0.265
[22]; first compound 0.04 µM
  relative viability: 0.523
[22]; first compound 0.1265 µM
  relative viability: 0.521
[22]; first compound 0.4 µM
  relative viability: 0.578
[22]; first compound 1.265 µM
  relative viability: 0.277

Source: the supplement of paper PMC10307832
